The numbers were not newly measured in patent US6818203B2, “Use of perfluoroalkyl-containing metal complexes as contrast media in MR-imaging for visualization of plaque, tumors and necroses” (Schering Aktiengesellschaft, priority 2000, dated 2004), which cites them from elsewhere.

This series concerns infarcted tissue. The following applies: cited from earlier work.

“And” between values parts separate entries of the source, which are not always exact repeats. Equal values may be shown once.

Take gadolinium-mesoporphyrin [Gd-MP]: the “ratio of the signal intensities during MRI for infarcted tissue in comparison to healthy tissue” value (infarcted kidney and myocardium (both cases)) is 2.10 and 2.19. In addition, the “metal content of the infarcted organ compared with non-infarcted” value (kidney (Example 3 of WO 95/31219)) is recorded as “as high as that of the non-infarcted organ”. For the same substance, for the setting “myocardium (Example 1 of WO 95/31219)”, the “metal content in the infarcted tissue compared with non-infarcted” value is recorded as “nine times as high”.
